Experimental findings from patent US6936631B2, “Bicyclic imidazo-5-yl-amine derivatives” (Gruenenthal GmbH, priority 1999, dated 2005) are described below.

The test has as its system α2-subtype of the human α-adrenergic receptor. In words: SPA assay for affinity for the α2-subtype of the human α-adrenergic receptor (high throughput screening). The test is classed as binding. As to conditions: at a concentration of 10 μM. The method, then:
The compounds according to the invention are ligands of the pain-relevant α2-subtype of the human α-adrenergic receptor. The affinity for the α2-subtype of the human α-adrenergic receptor was determined by means of a conventional SPA assay for high throughput screening, such as is described in John P. Devlin, High Throughput Screening, Marcel Dekker Inc. 1997, page 307 to 316. This literature is incorporated herein by reference and thus forms part of the disclosure. The following affinities were determined at a concentration of 10 μM: […]
`CCCCN(C(C)=O)c1c(-c2c(F)cccc2Cl)nc2nc[nH]n12` [Example 55, N-Butyl-N-[5-(2-chloro-6-fluorophenyl)-imidazo[1,2-b][1,2,4]triazol-6-yl]-acetamide]: the “alpha2 affinity, 10 μM” value is on record as 39%. Regarding `CC(C)(C)CC(C)(C)Nc1c(-c2ccccc2Br)nc2nc[nH]n12` [Example 47, [5-(2-Bromophenyl)-imidazo[1,2-b][1,2,4]triazol-6-yl]-(1,1,3,3-tetramethyl-butyl)-amine], the “alpha2 affinity, 10 μM” value was 42%. The same measure for `Cc1ccc(-c2nc3nc[nH]n3c2NC(C)(C)CC(C)(C)C)c(C)c1` [Example 53, [5-(2,4-dimethyl-phenyl)-imidazo[1,2-b][1,2,4]triazol-6-yl]-(1,1,3,3-tetramethyl-butyl) -amine]: 43%; for `CC(C)(C)Nc1c(-c2ccccc2F)nc2sccn12` [Example 44, tert-Butyl-[6-(2-fluorophenyl)-imidazo[2,1-b]thiazol-5-yl]-amine]: 38%. The result for `CC(C)(C)Nc1c(-c2cccc3ccccc23)nc2nc[nH]n12` [Example 45, tert-Butyl-(5-naphthalen-1-yl-imidazo[1,2-b][1,2,4]triazol-6-yl)-amine] reads 41%; that for `CC(C)(C)Nc1c(-c2ccccc2F)nc2nc[nH]n12` [Example 43, tert-Butyl-[5-(2-fluorophenyl)-imidazo[1,2-b][1,2,4]triazol-6-yl]-amine], 34%. With `Cc1ccc(C)c(-c2nc3sccn3c2NC2CCCCC2)c1` [Example 51, Cyclohexyl-[6-(2,5-dimethylphenyl)-imidazo[2,1-b]thiazol-5-yl]-amine], the “alpha2 affinity, 10 μM” value is reported as 39%. The result for `CCCCN(C(C)=O)c1c(-c2ccc(C(C)(C)C)cc2)nc2sc(C)cn12` [Example 56, N-Butyl-N-[6-(4-tert-butyl-phenyl)-2-methyl-imidazo[2,1-b]thiazol-5-yl]-acetamide] reads 46%; that for `CC(=O)Nc1ccc(-c2nc3nc[nH]n3c2NC2CCCCC2)cc1` [Example 48, N-[4-(6-Cyclohexylamino-imidazo[1,2-b][1,2,4]triazol-5-yl) -phenyl]-acetamide], 36%; that for `Cc1ccc(C)c(-c2nc3nc[nH]n3c2NC(C)(C)CC(C)(C)C)c1` [Example 54, [5-(2,5-Dimethyl-phenyl)-imidazo [1,2-b][1,2,4]triazol-6-yl]-(1,1,3,3-tetramethyl-butyl) -amine], 56%. The same measure for `c1ccc2c(-c3nc4nc[nH]n4c3NC3CCCCC3)cccc2c1` [Example 46, Cyclohexyl-(5-naphthalen-1-yl-imidazo[1,2-b][1,2,4]triazol-6-yl)-amine]: 46%; for `Cc1ccc(-c2nc3sccn3c2NC2CCCCC2)c(C)c1` [Example 50, Cyclohexyl-[6-(2,4-dimethyl-phenyl)-imidazo[2,1-b]thiazol-5-yl]-amine]: 36%; for `CCCCNc1c(-c2ccc(C(C)(C)C)cc2)nc2sc(C)cn12` [Example 42, Butyl-[6-(4-tert-butyl-phenyl)-2-methyl-imidazo[2,1-b]thiazol-5-yl]-amine]: 36%. The same measure for `CC(=O)N(c1c(-c2ccc(C)cc2)nc2sccn12)C(C)(C)C` [Example 52, N-tert-Butyl-N-(6-p-tolyl-imidazo[2,1-b]thiazol-5-yl)-acetamide]: 51%; for `Cc1ccc(C)c(-c2nc3nc[nH]n3c2NC(C)(C)C)c1` [Example 49, tert-Butyl-[5-(2,5-dimethyl-phenyl)-imidazo[1,2-b][1,2,4]triazol-6-yl]-amine]: 38%.
